Measured values from US11096909B2, “Compounds for use in the treatment of cancer” (University of Oulu, priority 2016, dated 2021).

Key:
[1] = test system: HeLa cells treated with hydroxyurea; assay: DNA damage experiments with hydroxyurea; type: cell-based; conditions: 5 μM OUL35 combined with hydroxyurea, cell confluence at 72 hours
Method: FIG. 4. […] Cell confluence is indicated at 72 hours (n=5, data present mean±SEM, n.s=not significant, *P<0.05, **P<0.01).
HeLa cells (ATCC) were grown in Dulbecco's modified Eagle's medium (DMEM, Sigma) supplemented with 10% fetal bovine serum (Lonza), 1× penicillin and streptomycin (Sigma) at 37° C. in a 5% CO2 atmosphere. 4000 cells/well were plated on 96-well plates. […] The DMSO content was kept below 0.05% in all experiments. The 96-well plates were placed in an IncuCyte ZOOM live cell imaging system (Essen BioScience) to follow the cell growth. The plates were scanned in the IncuCyte at 2 hour intervals for 72 hours. Data were analyzed by the IncuCyte Zoom software (Essen BioScience). The results are representative of three (cell growth curves) or five independent experiments (72 h end points) each done in six replicates. P values less than 0.05 were considered as significant (n.s=not statistically significant, *P<0.05, **P<0.01).

[2] = test system: HeLa cells overexpressing ARTD10; assay: Colony formation assay; type: cell-based; conditions: control cells (ARTD10 not induced), 10 μM compound
Method: The different compounds were added as indicated with a final concentration of 10 μM. These were replenished every 48 h. (b) Quantification of the colony formation results. The data represent mean values of three independent experiments performed in duplicates with standard deviations.
The cells were grown in DMEM culture media with 10% FCS, and the plates were incubated at 37° C. with 5% CO2. After 24 h of seeding, over expression of ARTD10 was induced by adding 500 ng/ml doxycycline and the media were also supplemented with the tested compounds at 10 μM concentrations. The cells were allowed to proliferate for the next 10 days, after which they were stained with methylene blue to count the number of surviving colonies. The compounds and doxycycline were replenished every 48 h while fresh media (DMEM supplemented with 10% FCS) was added every four days.

[3] = target: ARTD12/PARP12 (Homo sapiens, UniProt Q9H0J9); assay: biochemical
Chain of ARTD12/PARP12 (Q9H0J9 whole entry): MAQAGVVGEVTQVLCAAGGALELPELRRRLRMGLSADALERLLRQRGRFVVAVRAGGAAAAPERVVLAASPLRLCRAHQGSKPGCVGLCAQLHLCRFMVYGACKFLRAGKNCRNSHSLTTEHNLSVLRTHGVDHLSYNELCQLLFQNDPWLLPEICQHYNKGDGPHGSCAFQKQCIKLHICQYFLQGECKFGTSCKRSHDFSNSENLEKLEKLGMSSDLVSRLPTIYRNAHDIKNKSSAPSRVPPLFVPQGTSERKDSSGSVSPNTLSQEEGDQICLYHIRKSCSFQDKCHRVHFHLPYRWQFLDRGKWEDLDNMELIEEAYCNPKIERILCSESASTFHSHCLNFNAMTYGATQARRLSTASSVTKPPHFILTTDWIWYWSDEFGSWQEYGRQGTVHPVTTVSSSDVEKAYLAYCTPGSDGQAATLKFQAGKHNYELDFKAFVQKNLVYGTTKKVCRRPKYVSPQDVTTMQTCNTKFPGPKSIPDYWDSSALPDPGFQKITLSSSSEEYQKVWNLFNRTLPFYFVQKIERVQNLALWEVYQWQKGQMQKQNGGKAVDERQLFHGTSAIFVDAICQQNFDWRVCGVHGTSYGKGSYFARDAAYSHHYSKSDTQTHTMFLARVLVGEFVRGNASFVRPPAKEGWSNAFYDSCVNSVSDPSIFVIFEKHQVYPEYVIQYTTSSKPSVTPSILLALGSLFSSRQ

[4] = target: T1, ARTD3/PARP3 (Homo sapiens, UniProt Q9Y6F1); assay: Activity-based fluorescent assay, ARTD3; type: biochemical
T1 construct: made in house; host or cells: E. coli
T1 sequence (Q9Y6F1 1-533): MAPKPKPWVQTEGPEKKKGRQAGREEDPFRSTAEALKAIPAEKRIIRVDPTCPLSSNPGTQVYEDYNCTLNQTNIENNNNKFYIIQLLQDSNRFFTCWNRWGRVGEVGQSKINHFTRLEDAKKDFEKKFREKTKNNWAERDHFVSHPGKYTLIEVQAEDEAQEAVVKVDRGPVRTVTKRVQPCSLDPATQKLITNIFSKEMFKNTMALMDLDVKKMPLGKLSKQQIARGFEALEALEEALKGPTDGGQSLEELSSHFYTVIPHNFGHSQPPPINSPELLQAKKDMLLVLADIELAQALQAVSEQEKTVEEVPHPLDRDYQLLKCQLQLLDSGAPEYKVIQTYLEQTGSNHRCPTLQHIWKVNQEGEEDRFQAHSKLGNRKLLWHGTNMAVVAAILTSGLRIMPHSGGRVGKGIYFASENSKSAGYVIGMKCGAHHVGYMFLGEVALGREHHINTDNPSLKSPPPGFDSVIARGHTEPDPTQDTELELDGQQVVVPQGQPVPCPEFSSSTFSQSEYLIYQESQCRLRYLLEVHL

[5] = test system: HeLa cells; assay: Cytotoxicity in HeLa cells; type: cell-based; conditions: 10 μM
[6] = target: T2, ARTD7/PARP15 (Homo sapiens, UniProt Q460N3); assay: biochemical
T2 sequence (Q460N3 1-678): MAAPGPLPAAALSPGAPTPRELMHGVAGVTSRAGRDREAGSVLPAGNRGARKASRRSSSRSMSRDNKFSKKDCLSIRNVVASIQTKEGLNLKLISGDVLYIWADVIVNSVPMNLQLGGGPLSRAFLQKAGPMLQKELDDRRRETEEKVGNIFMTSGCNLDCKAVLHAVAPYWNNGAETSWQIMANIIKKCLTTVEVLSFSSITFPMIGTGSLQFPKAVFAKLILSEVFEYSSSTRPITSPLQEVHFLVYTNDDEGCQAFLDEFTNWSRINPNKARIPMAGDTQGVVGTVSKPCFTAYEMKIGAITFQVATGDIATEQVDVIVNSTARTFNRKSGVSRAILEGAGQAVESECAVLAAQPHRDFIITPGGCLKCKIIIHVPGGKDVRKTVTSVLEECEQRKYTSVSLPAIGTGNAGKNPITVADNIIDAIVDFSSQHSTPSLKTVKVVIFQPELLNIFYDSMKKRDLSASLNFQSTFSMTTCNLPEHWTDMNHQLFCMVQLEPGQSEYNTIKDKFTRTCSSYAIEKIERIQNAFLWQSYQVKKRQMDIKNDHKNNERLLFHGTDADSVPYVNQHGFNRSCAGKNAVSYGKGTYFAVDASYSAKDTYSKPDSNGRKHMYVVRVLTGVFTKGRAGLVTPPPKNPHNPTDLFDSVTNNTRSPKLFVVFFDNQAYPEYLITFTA

[7] = target: T3, ARTD4/PARP4 (Homo sapiens, UniProt Q9UKK3); assay: Activity-based fluorescent assay, ARTD4; type: biochemical; design: made in house; host or cells: E. coli
T3 sequence (Q9UKK3 whole entry): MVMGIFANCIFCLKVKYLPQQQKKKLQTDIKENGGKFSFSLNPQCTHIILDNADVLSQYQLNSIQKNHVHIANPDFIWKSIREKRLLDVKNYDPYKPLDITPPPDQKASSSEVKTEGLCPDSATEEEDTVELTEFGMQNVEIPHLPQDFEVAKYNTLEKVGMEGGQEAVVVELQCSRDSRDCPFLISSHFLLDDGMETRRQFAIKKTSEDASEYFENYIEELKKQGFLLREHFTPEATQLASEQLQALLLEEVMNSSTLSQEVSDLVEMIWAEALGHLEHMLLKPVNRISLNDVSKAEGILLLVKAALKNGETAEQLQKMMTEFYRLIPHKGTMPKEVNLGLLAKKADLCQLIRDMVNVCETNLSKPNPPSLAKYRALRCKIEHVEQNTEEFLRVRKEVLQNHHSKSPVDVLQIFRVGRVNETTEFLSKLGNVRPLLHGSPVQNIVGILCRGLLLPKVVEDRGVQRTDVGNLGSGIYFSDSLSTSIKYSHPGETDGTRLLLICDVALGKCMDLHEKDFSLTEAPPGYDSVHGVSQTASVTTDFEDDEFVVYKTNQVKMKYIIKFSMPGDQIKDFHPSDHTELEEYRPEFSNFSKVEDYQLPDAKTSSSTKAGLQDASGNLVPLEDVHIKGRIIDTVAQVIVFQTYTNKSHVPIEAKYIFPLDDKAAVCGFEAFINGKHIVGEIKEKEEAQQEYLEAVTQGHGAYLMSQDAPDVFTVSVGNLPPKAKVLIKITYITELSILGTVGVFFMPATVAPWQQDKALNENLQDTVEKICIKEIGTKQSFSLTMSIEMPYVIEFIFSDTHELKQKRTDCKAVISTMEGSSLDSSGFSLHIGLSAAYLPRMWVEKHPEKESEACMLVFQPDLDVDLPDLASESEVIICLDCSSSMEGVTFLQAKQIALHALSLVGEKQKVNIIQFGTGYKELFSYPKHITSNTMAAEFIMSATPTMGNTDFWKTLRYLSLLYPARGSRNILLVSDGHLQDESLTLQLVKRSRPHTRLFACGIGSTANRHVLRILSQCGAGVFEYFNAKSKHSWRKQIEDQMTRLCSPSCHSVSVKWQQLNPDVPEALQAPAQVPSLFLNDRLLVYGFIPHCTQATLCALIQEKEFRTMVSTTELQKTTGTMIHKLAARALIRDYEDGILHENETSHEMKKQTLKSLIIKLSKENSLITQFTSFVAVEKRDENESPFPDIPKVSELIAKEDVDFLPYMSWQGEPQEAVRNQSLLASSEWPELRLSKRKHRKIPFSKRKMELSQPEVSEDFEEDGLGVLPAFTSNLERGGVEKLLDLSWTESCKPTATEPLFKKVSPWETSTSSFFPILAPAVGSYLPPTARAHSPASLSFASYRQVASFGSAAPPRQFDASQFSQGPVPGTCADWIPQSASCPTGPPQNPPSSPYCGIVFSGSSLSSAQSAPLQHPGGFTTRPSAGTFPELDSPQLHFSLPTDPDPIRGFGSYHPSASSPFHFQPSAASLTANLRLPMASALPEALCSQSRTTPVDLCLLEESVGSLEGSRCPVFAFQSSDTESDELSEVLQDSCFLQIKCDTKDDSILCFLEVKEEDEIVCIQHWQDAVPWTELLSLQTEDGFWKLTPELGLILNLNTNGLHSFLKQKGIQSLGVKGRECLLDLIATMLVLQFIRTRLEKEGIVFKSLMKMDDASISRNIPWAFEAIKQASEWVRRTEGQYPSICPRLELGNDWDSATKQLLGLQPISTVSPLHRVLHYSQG

[8] = target: T4, ARTD15/PARP16 (Homo sapiens, UniProt Q8N5Y8); assay: Differential scanning fluorimetry, ARTD15
T4 sequence (Q8N5Y8 94-279 limits assumed): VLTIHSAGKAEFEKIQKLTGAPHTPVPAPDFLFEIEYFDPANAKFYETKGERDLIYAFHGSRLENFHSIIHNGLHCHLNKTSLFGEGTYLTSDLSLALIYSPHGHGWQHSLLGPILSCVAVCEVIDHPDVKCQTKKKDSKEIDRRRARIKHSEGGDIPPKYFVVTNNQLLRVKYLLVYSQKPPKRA

[9] = target: T1, ARTD3/PARP3; assay: Differential scanning fluorimetry, ARTD3; type: binding; conditions: read-out: ΔTm (DSF), ° C. ± STDEV
[10] = target: T5, ARTD6/PARP5b (Homo sapiens, UniProt Q9H2K2); assay: Activity-based fluorescent assay, ARTD6; type: biochemical
T5 construct: made in house; host or cells: E. coli
T5 sequence (Q9H2K2 1-1166): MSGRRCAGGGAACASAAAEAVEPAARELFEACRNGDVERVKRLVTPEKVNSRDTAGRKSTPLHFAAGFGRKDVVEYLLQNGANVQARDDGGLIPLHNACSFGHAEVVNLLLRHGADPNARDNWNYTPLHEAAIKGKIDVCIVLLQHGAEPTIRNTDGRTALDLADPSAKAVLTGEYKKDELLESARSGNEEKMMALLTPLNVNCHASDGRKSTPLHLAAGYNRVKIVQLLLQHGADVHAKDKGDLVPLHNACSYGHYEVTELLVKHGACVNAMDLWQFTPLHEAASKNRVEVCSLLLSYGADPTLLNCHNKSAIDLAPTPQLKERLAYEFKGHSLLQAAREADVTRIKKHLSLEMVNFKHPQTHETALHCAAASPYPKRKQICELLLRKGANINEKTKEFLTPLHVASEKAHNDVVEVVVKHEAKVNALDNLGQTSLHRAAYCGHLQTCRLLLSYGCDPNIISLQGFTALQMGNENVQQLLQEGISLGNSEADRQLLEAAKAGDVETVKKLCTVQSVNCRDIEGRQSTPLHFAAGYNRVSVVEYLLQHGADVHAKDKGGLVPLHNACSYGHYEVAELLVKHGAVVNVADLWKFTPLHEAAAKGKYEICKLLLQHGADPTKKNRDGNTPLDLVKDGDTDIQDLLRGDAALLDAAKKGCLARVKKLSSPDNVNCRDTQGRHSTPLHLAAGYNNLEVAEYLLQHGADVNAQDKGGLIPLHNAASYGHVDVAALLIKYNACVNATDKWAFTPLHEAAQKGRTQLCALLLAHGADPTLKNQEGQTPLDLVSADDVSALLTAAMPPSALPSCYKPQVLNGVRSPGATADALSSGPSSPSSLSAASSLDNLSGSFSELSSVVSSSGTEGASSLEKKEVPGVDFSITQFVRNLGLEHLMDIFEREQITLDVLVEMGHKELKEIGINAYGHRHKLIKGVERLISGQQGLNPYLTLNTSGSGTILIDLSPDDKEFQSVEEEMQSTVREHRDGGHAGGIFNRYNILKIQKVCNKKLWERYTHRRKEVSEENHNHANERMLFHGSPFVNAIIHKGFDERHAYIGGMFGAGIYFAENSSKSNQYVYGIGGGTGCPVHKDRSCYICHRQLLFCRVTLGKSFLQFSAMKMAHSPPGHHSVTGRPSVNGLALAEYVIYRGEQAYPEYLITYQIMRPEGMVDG

[11] = target: T3, ARTD4/PARP4; assay: Differential scanning fluorimetry, ARTD4; conditions: read-out: ΔTm (DSF), ° C. ± STDEV
[12] = target: T6, ARTD5/PARP5a (Homo sapiens, UniProt O95271); assay: Activity-based fluorescent assay, ARTD5; type: biochemical
T6 construct: made in house; host or cells: E. coli
T6 sequence (O95271 1-1327): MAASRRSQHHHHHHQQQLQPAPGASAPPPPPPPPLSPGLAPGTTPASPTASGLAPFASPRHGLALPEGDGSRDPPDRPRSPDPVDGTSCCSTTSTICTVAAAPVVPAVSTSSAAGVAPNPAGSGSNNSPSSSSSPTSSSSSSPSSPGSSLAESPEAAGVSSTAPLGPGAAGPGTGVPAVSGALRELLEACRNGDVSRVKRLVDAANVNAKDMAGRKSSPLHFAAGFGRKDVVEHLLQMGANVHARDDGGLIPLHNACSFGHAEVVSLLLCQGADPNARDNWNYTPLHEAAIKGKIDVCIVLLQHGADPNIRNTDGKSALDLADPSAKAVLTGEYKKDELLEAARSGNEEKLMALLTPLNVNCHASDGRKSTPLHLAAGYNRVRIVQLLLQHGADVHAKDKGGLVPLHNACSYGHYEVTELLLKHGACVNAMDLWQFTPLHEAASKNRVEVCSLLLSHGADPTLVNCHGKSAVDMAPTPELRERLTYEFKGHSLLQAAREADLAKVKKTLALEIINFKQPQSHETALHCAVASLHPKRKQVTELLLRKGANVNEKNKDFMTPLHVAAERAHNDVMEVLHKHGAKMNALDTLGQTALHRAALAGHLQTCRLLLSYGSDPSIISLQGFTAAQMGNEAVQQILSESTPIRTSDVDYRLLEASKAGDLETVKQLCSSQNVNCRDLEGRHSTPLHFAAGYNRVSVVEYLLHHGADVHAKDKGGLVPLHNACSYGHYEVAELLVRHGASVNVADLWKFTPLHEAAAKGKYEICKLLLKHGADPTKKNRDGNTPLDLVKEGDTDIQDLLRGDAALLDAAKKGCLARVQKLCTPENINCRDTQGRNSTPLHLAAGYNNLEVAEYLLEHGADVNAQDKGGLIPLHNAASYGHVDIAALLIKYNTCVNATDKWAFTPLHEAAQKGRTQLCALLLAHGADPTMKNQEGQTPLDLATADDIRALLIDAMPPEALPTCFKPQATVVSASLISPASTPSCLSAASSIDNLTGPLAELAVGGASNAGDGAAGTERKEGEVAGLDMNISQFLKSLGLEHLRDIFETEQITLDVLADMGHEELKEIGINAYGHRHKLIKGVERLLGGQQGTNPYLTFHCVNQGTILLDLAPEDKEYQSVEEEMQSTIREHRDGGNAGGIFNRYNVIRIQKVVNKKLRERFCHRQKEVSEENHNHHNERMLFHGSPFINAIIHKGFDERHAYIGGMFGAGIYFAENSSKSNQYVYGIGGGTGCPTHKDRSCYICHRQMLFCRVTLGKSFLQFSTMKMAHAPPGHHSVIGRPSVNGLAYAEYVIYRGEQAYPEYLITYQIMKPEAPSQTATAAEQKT

NC(=O)c1ccc(Oc2ccc(C(N)=O)cc2)cc1 [OUL35, 4,4′-oxydibenzamide]
sensitivity to hydroxyurea-induced DNA damage [1]: more sensitive to DNA damage in the presence of OUL35 | toxicity in the control cells [2]: not toxic to control cells | IC50 [3]: > 100 µM | IC50 [4]: > 100 µM | cytotoxic effect [5]: no cytotoxic effect | IC50 [6]: > 20 µM | IC50 [7]: 22.6 µM | pIC50 ± SEM [7]: 4.65 ± 0.17 | stabilization of catalytic domain (DSF) ([8]; 100 μM OUL35): stabilized the catalytic domains | ΔTm at 100 µM ([8]; read-out: ΔTm (DSF), ° C. ± STDEV): 2.45 ± 0.11 °C | ΔTm at 100 µM [9]: 0.09 ± 0.32 °C | IC50 [10]: > 100 µM | ΔTm at 100 µM [11]: 0.84 ± 0.14 °C | IC50 [12]: > 100 µM
